According to patent US8722663B2, “Di-substituted pyridine derivatives as anticancers” (Otsuka Pharmaceutical Co., Ltd., priority 2010, dated 2014):
Structures can show the parent of a compound that is named as a salt.

Key:
[1] = test system: human breast cancer cell line (MDA-MB-468); assay: Growth inhibition of MDA-MB-468 cells, sulforhodamine B method; format: cell-based; details: 120 h, 5 days with test compound
Protocol: Growth inhibition of a human breast cancer cell line (MDA-MB-468) was determined by the sulforhodamine B method based on the method of Skehan P. et al. (J Natl Cancer Inst. 1990 Jul. 4; 82(13): 1107-12). In the study, MDA-MB-468 cells were seeded on DMEM medium containing 10% fetal bovine serum in a 96-well microplate. After 24-h incubation at 37° C. in the presence of 5% carbon dioxide, the test compound was added and the cells were incubated for another 5 days. After incubation, a trichloroacetic acid solution was added to yield the final concentration of 10% and the cells were left to stand at 4° C. for 1 hour to fix. Then, the cells were washed with water to remove the medium and trichloroacetic acid and dried in the air. The dried cells were stored at 4° C. until they were stained with sulforhodamine B. To each well, 1% acetic acid solution containing 0.4% sulforhodamine B was added and left to stand for 20 to 30 minutes at room temperature. After discarding the supernatant, each well was washed with 1% acetic acid solution, and 10 mM Tris([…]) solution was added while stirring to elute the dye taken into the cells. Then, the optical density was determined at the measurement wavelength of 492 nm and the reference wavelength of 690 nm, and the difference was calculated. The cell growth activity in each well was defined as the value determined by subtracting the OD in the control well not containing cells (the difference in absorbance between 492 nm and 690 nm) from that in the test well.
(§1) The 50% inhibitory concentration (IC50 (nM)) of the test compound was determined by comparing the cell growth activity in the well containing the test compound with that of the control not containing the test compound.

[2] = test system: bicalutamide resistant human prostate cancer cell line established from LNCaP.FGC (LNCaP-Bic); assay: Growth inhibition of LNCaP-Bic cells, WST-8 assay; format: cell-based; details: 120 h, 5 days with test compound
Protocol: (§2) The growth inhibition on a bicalutamide resistant human prostate cancer cell line established from LNCaP.FGC (LNCaP-Bic) (Hobisch A, et al. Prostate. 2006; 66(4):413-20.) was determined by a WST-8 assay according to the method of Singh A K, et al. (Cancer Lett. 1996 Oct. 1; 107(1): 109-15.). In this method, LNCaP-Bic cells were seeded in RPMI 1640 medium containing 10% fetal bovine serum in a 96-well microplate and incubated at 37° C. for 24 hours in the presence of 5% carbon dioxide. Then, the test compound was added and the cells were incubated for another 5 days. After incubation, a 15-μL volume of WST-8 (2-(2-methoxy-4-nitrophenyl)-3-(4-nitrophenyl)-5-(2,4-[…])-2H-tetrazolium, monosodium salt) was added. After the incubation for the time, the color reaction was stopped by adding 15 μL of 1% SDS (sodium dodecyl sulfate) solution and the optical density was determined at the measurement wavelength of 450 nm and the reference wavelength of 630 nm, and the difference was calculated. The cell growth activity in each well was defined as the value determined by subtracting the OD in the control well not containing cells (the difference in absorbance between 450 nm and 630 nm) from that in the test well.
as §1

[3] = test system: human prostate (carcinoma) cell line (LNCaP.FGC); assay: Growth inhibition of LNCaP.FGC cells, WST-8 assay; format: cell-based; details: 120 h, 5 days with test compound
Protocol: as §2, §1
The growth inhibition on a human prostate (carcinoma) cell line (LNCaP.FGC) (van Bokhoven A, et al. Prostate. 2003; 57(3):205-25.) was also determined by the above method.

[4] = test system: human prostate (adenocarcinoma) cell line (VcaP); assay: Growth inhibition of VcaP cells, WST-8 assay; format: cell-based; details: 120 h, 5 days with test compound
Protocol: as §2, §1
The growth inhibition on a human prostate (adenocarcinoma) cell line (VcaP) (Korenchuk S, et al. In Vivo. 2001; 15(2):163-8.) was also determined by the above method.

[5] = test system: human prostate (carcinoma) cell line (DU 145); assay: Growth inhibition of DU 145 cells, WST-8 assay; format: cell-based; details: 120 h, 5 days with test compound
Protocol: as §2, §1
The growth inhibition on a human prostate (carcinoma) cell line (DU 145) (van Bokhoven A, et al. Prostate. 2003; 57(3):205-25.) was also determined by the above method.

[6] = test system: human prostate (adenocarcinoma) cell line (PC-3); assay: Growth inhibition of PC-3 cells, WST-8 assay; format: cell-based; details: 120 h, 5 days with test compound
Protocol: as §2, §1
The growth inhibition on a human prostate (adenocarcinoma) cell line (PC-3) (van Bokhoven A, et al. Prostate. 2003; 57(3):205-25.) was also determined by the above method.

SMILES | IC50 [1] | melting point | further results
Cc1ccc(COc2ccc(Oc3c(C)cc(/C=C/C(=O)N4CCN(Cc5ccc(CC(C)Oc6ccc(C)cc6)cc5)CC4)cc3Cl)nc2)cc1 (stereo not shown) [Example 534, (E)-3-[3-Chloro-5-methyl-4-({5-[(4-methylbenzyl)oxy]pyridin-2-yl}oxy)phenyl]-1-(4-{4-[2-(4-methylphenoxy)propyl]benzyl}piperazin-1-yl)prop-2-en-1-one hydrochloride] | < 0.01 µM |  | 
Cc1cc(/C=C/C(=O)N2CCN(Cc3ccc(CCOc4ccc(F)cc4)cc3)CC2)cc(Cl)c1Oc1ccc(OCc2cccc(Cl)c2F)cn1.Cl [Example 485, (E)-3-[3-Chloro-4-({5-[(3-chloro-2-fluorobenzyl)oxy]pyridin-2-yl}oxy)-5-methylphenyl]-1-(4-{4-[2-(4-fluorophenoxy)ethyl]benzyl}piperazin-1-yl)prop-2-en-1-one hydrochloride] | < 0.01 µM | 228.9 to 229.4 °C | 
Cc1cc(/C=C/C(=O)N2CCN(Cc3ccc(CCOc4ccc(C#N)cc4)cc3)CC2)cc(Cl)c1Oc1ccc(OCc2ccc(C(F)(F)F)cc2)cn1 [Example 289, 4-{2-[4-({4-[(E)-3-{3-chloro-5-methyl-4-[(5-{[4-(trifluoromethyl)benzyl]oxy}pyridin-2-yl)oxy]phenyl}prop-2-enoyl]piperazin-1-yl}methyl)phenyl]ethoxy}benzonitrile] | < 0.01 µM |  | 
Cc1ccc(COc2ccc(Oc3c(C)cc(/C=C/C(=O)N4CCCN(Cc5ccc(CCOc6ccc(C(C)C)cc6)cc5)CC4)cc3Cl)nc2)cc1 [Example 123, (E)-3-[3-Chloro-5-methyl-4-({5-[(4-methylbenzyl)oxy]pyridin-2-yl}oxy)phenyl]-1-[4-(4-{2-[4-(propan-2-yl)phenoxy]ethyl}benzyl)-1,4-diazepan-1-yl]prop-2-en-1-one] | < 0.01 µM |  | 
Cc1cc(/C=C/C(=O)N2CCN(Cc3ccc(CCOc4ccc(C(F)(F)F)cc4)cc3F)CC2)cc(C)c1Oc1ccc(OCc2ccc(C#N)cc2)cn1 [Example 616, 4-({[6-(4-{(E)-3-[4-(2-Fluoro-4-{2-[4-(trifluoromethyl)phenoxy]ethyl}benzyl)piperazin-1-yl]-3-oxoprop-1-en-1-yl}-2,6-dimethylphenoxy)pyridin-3-yl]oxy}methyl)benzonitrile hydrochloride] | < 0.01 µM |  | 
Cc1cc(/C=C/C(=O)N2CCN(Cc3ccc(CCOc4ccc(C(C)C)cc4)cc3)CC2)ccc1Oc1ccc(OCc2ccccc2Cl)cn1.Cl [Example 507, (E)-3-[4-({5-[(2-Chlorobenzyl)oxy]pyridin-2-yl}oxy)-3-methylphenyl]-1-[4-(4-{2-[4-(propan-2-yl)phenoxy]ethyl}benzyl)piperazin-1-yl]prop-2-en-1-one hydrochloride] |  | 178.2 to 178.9 °C | IC50 [2]: < 10 nM; IC50 [3]: < 10 nM; IC50 [4]: < 10 nM; IC50 [5]: < 10 nM; IC50 [6]: < 10 nM
COc1ccc(NCCc2ccc(CN3CCN(C(=O)/C=C/c4ccc(Oc5ccc(OCc6ccc(C#N)cc6)cn5)c(Cl)c4)CC3)cc2)cc1.Cl.Cl [Example 669, 4-({[6-(2-Chloro-4-{(E)-3-[4-(4-{2-[(4-methoxyphenyl)amino]ethyl}benzyl)piperazin-1-yl]-3-oxoprop-1-en-1-yl}phenoxy)pyridin-3-yl]oxy}methyl)benzonitrile dihydrochloride] |  | 219.5 to 222.3 °C | IC50 [2]: < 10 nM; IC50 [3]: < 10 nM; IC50 [4]: < 10 nM; IC50 [5]: < 10 nM; IC50 [6]: < 10 nM

Continued, in another order:

IC50 [1] | melting point | SMILES | further results
< 0.01 µM |  | COc1ccc(COc2ccc(Oc3c(C)cc(/C=C/C(=O)N4CCN(Cc5ccc(CC(C)Oc6ccc(F)cc6)cc5)CC4)cc3C)nc2)cc1 (stereo not shown) [Example 725, (E)-1-(4-{4-[2-(4-Fluorophenoxy)propyl]benzyl}piperazin-1-yl)-3-[4-({5-[(4-methoxybenzyl)-oxy]pyridin-2-yl}oxy)-3,5-dimethylphenyl]prop-2-en-1-one hydrobromide] | 
< 0.01 µM | 166.2 to 166.7 °C | Cc1cc(/C=C/C(=O)N2CCN(Cc3ccc(CCCOc4ccc(F)cc4)cc3)CC2)cc(Cl)c1Oc1ccc(OCc2ccc(C#N)cc2)cn1.Cl [Example 618, 4-{[(6-{2-Chloro-4-[(E)-3-(4-{4-[3-(4-fluorophenoxy)propyl]benzyl}piperazin-1-yl)-3-oxoprop-1-en-1-yl]-6-methylphenoxy}pyridin-3-yl)oxy]methyl}benzonitrile hydrochloride] | 
< 0.01 µM |  | Cc1cc(/C=C/C(=O)N2CCN(Cc3ccc(COc4ccc(C(C)C)cc4)cc3)CC2)cc(C)c1Oc1ccc(OCc2cscn2)cn1 [Example 648, (E)-3-(3,5-Dimethyl-4-{[5-(1,3-thiazol-4-ylmethoxy)pyridin-2-yl]oxy}phenyl)-1-[4-(4-{[4-(propan-2-yl)phenoxy]methyl}benzyl)piperazin-1-yl]prop-2-en-1-one hydrochloride] | 
< 0.01 µM |  | Cc1ccc(COc2ccc(Oc3c(C)cc(/C=C/C(=O)N4CCN(Cc5ccc(C)cc5)CC4)cc3Cl)nc2)cc1 [Example 359, (E)-3-[3-Chloro-5-methyl-4-({5-[(4-methylbenzyl)oxy]pyridin-2-yl}oxy)phenyl]-1-[4-(4-methylbenzyl)piperazin-1-yl]prop-2-en-1-one] | 
< 0.01 µM | 205.5 to 206.5 °C | Br.C/C(C(=O)N1CCN(Cc2ccc(CCOc3ccc(C)cc3)cc2)CC1)=C(/C)c1cc(C)c(Oc2ccc(OCc3ccc(C)cc3)cn2)c(Cl)c1 [Example 706, (E)-3-[3-Chloro-5-methyl-4-({5-[(4-methylbenzyl)oxy]pyridin-2-yl}oxy)phenyl]-2-methyl-1-(4-{4-[2-(4-methylphenoxy)ethyl]benzyl}piperazin-1-yl)but-2-en-1-one hydrobromide] | 
< 0.01 µM |  | Cc1ccc(COc2ccc(Oc3c(C)cc(/C=C/C(=O)N4CCN(Cc5ccc(CCOc6ccc(N(C)C)cc6)cc5)CC4)cc3Cl)nc2)cc1 [Example 321, (E)-3-[3-chloro-5-methyl-4-({5-[(4-methylbenzyl)oxy]-pyridin-2-yl}oxy)phenyl]-1-[4-(4-{2-[4-(dimethylamino)phenoxy]ethyl}benzyl)piperazin-1-yl]prop-2-en-1-one] | 
< 0.01 µM | 156.5 to 158.2 °C | Br.C/C(=C\C(=O)N1CCN(Cc2ccc(CCOc3ccc(C)cc3)cc2)CC1)c1cc(C)c(Oc2ccc(OCc3ccc(C)cc3)cn2)c(Cl)c1 [Example 708, (E)-3-[3-Chloro-5-methyl-4-({5-[(4-methylbenzyl)oxy]pyridin-2-yl}oxy)phenyl]-1-(4-{4-[2-(4-methylphenoxy)ethyl]benzyl}piperazin-1-yl)but-2-en-1-one hydrobromide] | 
< 0.01 µM | 218 to 220.5 °C | Cc1cc(/C=C/C(=O)N2CCN(Cc3ccc(COc4ccc(F)cc4)c(F)c3)CC2)cc(Cl)c1Oc1ccc(OCc2ccc(C#N)cc2)cn1.Cl [Example 641, 4-{[(6-{2-Chloro-4-[(E)-3-(4-{3-fluoro-4-[(4-fluorophenoxy)methyl]benzyl}piperazin-1-yl)-3-oxoprop-1-en-1-yl]-6-methylphenoxy}pyridin-3-yl)oxy]methyl}benzonitrile hydrochloride] | 
< 0.01 µM |  | Cc1ccc(OCCc2ccc(CN3CCN(C(=O)/C=C/c4cc(C)c(Oc5ccc(OCc6cccc(F)c6F)cn5)c(Cl)c4)CC3)cc2)cc1 [Example 487, (E)-3-[3-Chloro-4-({5-[(2,3-difluorobenzyl)oxy]pyridin-2-yl}oxy)-5-methylphenyl]-1-(4-{4-[2-(4-methylphenoxy)ethyl]benzyl}piperazin-1-yl)prop-2-en-1-one hydrochloride] | 
